Holding throughout (type): in vivo
For assay [1], the system named is Ctenocephalides felis. The experiment in a line: Ctenocephalides felis in vitro contact test with adult cat fleas. The settings on record: application rate 5 μg/cm^2 (=500 g/ha), after 48 h. As to the method:
Ctenocephalides felis—In Vitro Contact Tests with Adult Cat Fleas For the coating of the test tubes, 9 mg of active ingredient are first dissolved in 1 ml of acetone p.a. and then diluted to the desired concentration with acetone p.a. 250 μl of the solution are distributed homogeneously on the inner walls and the base of a 25 ml glass tube by turning and rocking on an orbital shaker (rocking rotation at 30 rpm for 2 h). With 900 ppm of active ingredient solution and internal surface area 44.7 cm^2, given homogeneous distribution, an area-based dose of 5 μg/cm^2 is achieved. After the solvent has evaporated off, the tubes are populated with 5-10 adult cat fleas (Ctenocephalides felis), sealed with a perforated plastic lid and incubated in a horizontal position at room temperature and ambient humidity. After 48 h, efficacy is determined. To this end, the tubes are stood upright and the fleas are knocked to the base of the tube. Fleas which remain motionless at the base or move in an uncoordinated manner are considered to be dead or moribund. […] 100% efficacy means that all the fleas were dead or moribund. 0% efficacy means that no fleas were harmed.

Assay [2] deals with Ctenocephalides felis. The experiment in a line: Ctenocephalides felis oral test. The settings on record: application rate 100 ppm in citrated cattle blood, adult cat fleas, after 2 days. As to the method: Ctenocephalides felis—Oral Test Solvent: dimethyl sulfoxide To produce a suitable active ingredient formulation, 10 mg of active ingredient are mixed with 0.5 ml of dimethyl sulfoxide. Dilution with citrated cattle blood gives the desired concentration. About 20 unfed adult cat fleas (Ctenocephalides felis) are placed into a chamber which is closed at the top and bottom with gauze. A metal cylinder whose bottom end is closed with parafilm is placed onto the chamber. The cylinder contains the blood/active ingredient formulation, which can be imbibed by the fleas through the parafilm membrane. After 2 days, the kill in % is determined. 100% means that all of the fleas have been killed; 0% means that none of the fleas have been killed.

The subject of the next assay is Lucilia cuprina. The experiment in a line: Lucilia cuprina test. The conditions noted are these: application rate 100 ppm, L1 larvae, after 2 days. As to the method:
Lucilia cuprina Test Solvent: dimethyl sulfoxide To produce a suitable active ingredient formulation, 10 mg of active ingredient are mixed with 0.5 ml of dimethyl sulfoxide, and the concentrate is diluted with water to the desired concentration. About 20 L1 larvae of the Australian sheep blowfly (Lucilia cuprina) are transferred into a test vessel containing minced horsemeat and the active ingredient formulation of the desired concentration. After 2 days, the kill in % is determined. 100% means that all the larvae have been killed; 0% means that no larvae have been killed.

Another assay deals with Musca domestica. The assay is described as follows: Musca domestica test. The conditions noted are these: adult houseflies, after 2 days. How it is done:
Musca domestica Test Solvent: dimethyl sulfoxide To produce a suitable active ingredient formulation, 10 mg of active ingredient are mixed with 0.5 ml of dimethyl sulfoxide, and the concentrate is diluted with water to the desired concentration. Vessels containing a sponge treated with sugar solution and the active ingredient formulation of the desired concentration are populated with 10 adult houseflies (Musca domestica). After 2 days, the kill in % is determined. 100% means that all of the flies have been killed; 0% means that none of the flies have been killed.

In assay [3] the test system is Myzus persicae. The experiment in a line: Myzus persicae oral test. The settings on record: 120 h, after 5 days, read-out: efficacy in %; for pest or weed control at 4 ppm: application rate 4 ppm; for pest or weed control at 0.8 ppm: application rate 0.8 ppm. How it is done: Myzus persicae—Oral Test [table] To produce a suitable active ingredient formulation, 1 part by weight of active ingredient is dissolved with the stated parts by weight of solvent and made up to the desired concentration with water. 50 μl of the active ingredient formulationare transferred into microtitre plates and made up to a final volume of 200 μl with 150 μl of IPL41 insect medium (33% +15% sugar). Subsequently, the plates are sealed with parafilm, which a mixed population of green peach aphids (Myzus persicae) within a second microtitre plate is able to puncture and imbibe the solution. After 5 days, the efficacy in % is determined. 100% means that all the aphids have been killed; 0% means that no aphids have been killed.

Another assay concerns Phaedon cochleariae. The experiment in a line: Phaedon cochleariae spray test. The settings on record: foliar, 168 h, application rate 100 g/ha, spray on Chinese cabbage leaf discs, larvae, after 7 days, read-out: efficacy in %. How it is done:
Phaedon cochleariae—Spray Test
(§1) To produce a suitable active ingredient formulation, 1 part by weight of active ingredient is dissolved with the specified parts by weight of solvent and made up to the desired concentration with water containing an emulsifier concentration of 1000 ppm. To produce further test concentrations, the formulation is diluted with emulsifier-containing water.
Discs of Chinese cabbage leaves (Brassica pekinensis) are sprayed with an active ingredient formulation of the desired concentration and, after drying, populated with larvae of the mustard beetle (Phaedon cochleariae).
After 7 days, the efficacy in % is determined. 100% means that all the beetle larvae have been killed; 0% means that no beetle larvae have been killed.

For a further assay, the system named is Tetranychus urticae. The assay is described as follows: Tetranychus urticae spray test, OP-resistant. The conditions noted are these: application rate 100 g/ha, spray on bean leaf discs, all stages, after 6 days. How it is done: Tetranychus urticae—Spray Test, OP-Resistant
as §1
Discs of bean leaves (Phaseolus vulgaris) infested with all stages of the greenhouse red spider mite (Tetranychus urticae) are sprayed with an active ingredient formulation of the desired concentration.
After 6 days, the efficacy in % is determined. 100% means that all the spider mites have been killed; 0% means that no spider mites have been killed.

The test system of assay [4] is Myzus persicae. The experiment in a line: Myzus persicae spray test. The conditions noted are these: foliar, 120 h, application rate 100 g/ha, spray on Chinese cabbage leaf discs, after 5 days, read-out: efficacy in %. How it is done: Myzus persicae—Spray Test [table] To produce a suitable active ingredient formulation, 1 part by weight of active ingredient is dissolved with the specified parts by weight of solvent and made up to the desired concentration with water containing an emulsifier concentration of 1000 ppm. To produce further test concentrations, the formulation is diluted with emulsifier-containing water. Discs of Chinese cabbage leaves (Brassica pekinensis) infested by all stages of the green peach aphid (Myzus persicae) are sprayed with an active ingredient formulation of the desired concentration. After 5 days, the efficacy in % is determined. 100% means that all the aphids have been killed; 0% means that no aphids have been killed.

A further assay has as its system Spodoptera frugiperda. The assay is described as follows: Spodoptera frugiperda spray test. The conditions noted are these: application rate 100 g/ha, spray on maize leaf discs, caterpillars, after 7 days. How it is done:
Spodoptera frugiperda—Spray Test [table] To produce a suitable active ingredient formulation, 1 part by weight of active ingredient is dissolved with the specified parts by weight of solvent and made up to the desired concentration with water containing an emulsifier concentration of 1000 ppm. To produce further test concentrations, the formulation is diluted with emulsifier-containing water. Leaf discs of maize (Zea mays) are sprayed with an active ingredient formulation of the desired concentration and, after drying, populated with caterpillars of the armyworm (Spodoptera frugiperda). After 7 days, the efficacy in % is determined. 100% means that all the caterpillars have been killed; 0% means that no caterpillar has been killed.

The structures appear in SMILES notation.

Regarding `CCSc1c(-c2nc3cc(C(F)(F)F)cnc3n2C)nc(C2CC2)n1C` [Example I-1, 2-[2-Cyclopropyl-5-(ethylsulfanyl)-1-methyl-1H-imidazol-4-yl]-3-methyl-6-(trifluoromethyl)-3H-imidazo[4,5-b]pyridine], the “efficacy (fleas dead or moribund)” value in the assay with Ctenocephalides felis [1] came to 100%. In addition, the “efficacy (kill in %)” value in the assay with Ctenocephalides felis [2] is 90%; with Lucilia cuprina it was 100%; in the assay on Musca domestica (application rate 20 ppm), 100%; in the assay on Musca domestica (application rate 100 ppm) it was 100%. Further, the pest or weed control at 4 ppm with Myzus persicae [3] amounted to 100%. Besides, the pest or weed control at 20 ppm with Myzus persicae [3] (application rate 20 ppm) was 100%. Further, the pest or weed control at 100 g/ha with Phaedon cochleariae turned out to be 100%. In the assay on Tetranychus urticae, the efficacy in % is recorded as 100%.

Consider `CCS(=O)(=O)c1c(-c2nc3cc(OC(F)(F)F)cnc3n2C)nc(C2CC2)n1C` [Example I-6], for which, in the assay with Myzus persicae [3], the pest or weed control at 0.8 ppm was 100%. The pest or weed control at 4 ppm in the assay with Myzus persicae [3] came to 100%. Besides, the pest or weed control at 100 g/ha in the assay with Myzus persicae [4] and in the assay with Phaedon cochleariae was 100% throughout. For the same molecule, the results for the efficacy in % with Spodoptera frugiperda and in the assay on Tetranychus urticae were 100% and 90%, respectively.

`CCS(=O)(=O)c1c(-c2nc3cc([S+]([O-])C(F)(F)F)cnc3n2C)nc(C2CC2)n1C` (stereo not drawn) [Example I-7]: the results for the “efficacy (kill in %)” value in the assay on Ctenocephalides felis [2], with Lucilia cuprina and in the assay on Musca domestica (application rate 20 ppm) were 100%, 100% and 80%, respectively. For the same molecule, in the assay on Myzus persicae [3], the pest or weed control at 0.8 ppm turned out to be 100%. For the same molecule, the figures for the pest or weed control at 100 g/ha in the assay on Myzus persicae [4] and with Phaedon cochleariae were 90% and 100%, respectively. In the assay on Spodoptera frugiperda, this molecule yielded an efficacy in % of 100%.

Turning to `CCS(=O)(=O)c1c(-c2nc3cc(S(=O)(=O)C(F)(F)F)cnc3n2C)nc(C2CC2)n1C` [Example I-8], the “efficacy (kill in %)” value in the assay on Ctenocephalides felis [2] was found to be 100%; in the assay on Lucilia cuprina, 100%; in the assay on Musca domestica (application rate 20 ppm), 80%. Moreover, the pest or weed control at 0.8 ppm in the assay on Myzus persicae [3] is 100%. In addition, in the assay on Myzus persicae [3], the pest or weed control at 4 ppm was determined as 100%. In addition, the pest or weed control at 100 g/ha with Phaedon cochleariae is 100%. The efficacy in % with Spodoptera frugiperda is 100%.

Take `CCS(=O)(=O)c1c(-c2nc3cc(C(F)(F)F)ncc3n2C)nc(C2CC2)n1C` [Example I-9]: in the assay with Myzus persicae [3], the pest or weed control at 0.8 ppm was 100% and the pest or weed control at 4 ppm was 100%. Further, the pest or weed control at 100 g/ha in the assay on Phaedon cochleariae turned out to be 100%.

Consider `CCn1c(C2CC2)nc(-c2nc3cc(C(F)(F)F)ncc3n2C)c1S(=O)(=O)CC` [Example I-10], for which, in the assay with Myzus persicae [3], the pest or weed control at 0.8 ppm worked out at 100% and the pest or weed control at 4 ppm is 100%. Moreover, the pest or weed control at 100 g/ha in the assay with Phaedon cochleariae was determined as 100%. This molecule also returned an efficacy in % in the assay with Spodoptera frugiperda of 83%.

In the case of `CCS(=O)(=O)c1c(-c2nc3cc(C(F)(F)F)ncc3n2C)nc(C2CC2)n1C(C)C` [Example I-11], the “efficacy (kill in %)” value in the assay with Ctenocephalides felis [2] is reported as 90%; in the assay on Lucilia cuprina it was 100%. Moreover, the pest or weed control at 0.8 ppm with Myzus persicae [3] stood at 100%. For the same molecule, the pest or weed control at 4 ppm in the assay on Myzus persicae [3] stood at 100%. Besides, the pest or weed control at 100 g/ha in the assay on Myzus persicae [4] came to 90%; in the assay with Phaedon cochleariae, 100%.

For `CCS(=O)(=O)c1c(-c2nc3cc(SC(F)(F)F)cnc3n2C)nc(C2CC2)n1C` [Example I-12], in the assay on Myzus persicae [3], the pest or weed control at 0.8 ppm was 100% and the pest or weed control at 4 ppm is 100%. Moreover, the pest or weed control at 100 g/ha in the assay on Myzus persicae [4] is 100%. Besides, the pest or weed control at 100 g/ha with Phaedon cochleariae worked out at 100%. Besides, the efficacy in % with Spodoptera frugiperda was 83%.

`CCS(=O)(=O)c1c(-c2nc3cc(C(F)(F)F)ncc3n2C)nc(C2CCCCC2)n1C` [Example I-13, 2-[2-Cyclohexyl-5-(ethylsulfonyl)-1-methyl-1H-imidazol-4-yl]-3-methyl-6-(trifluoromethyl)-3H-imidazo[4,5-c]pyridine]: the pest or weed control at 4 ppm in the assay with Myzus persicae [3] was determined as 100%.

As for `CCS(=O)(=O)c1c(-c2nc3cc(C(F)(F)F)ncc3n2C)nc([C@H]2CC[C@@H](C(F)(F)F)CC2)n1C` [Example I-15], in the assay with Myzus persicae [3], the pest or weed control at 0.8 ppm came out at 90%. Further, the pest or weed control at 4 ppm in the assay on Myzus persicae [3] was 100%. Further, the values for the pest or weed control at 100 g/ha in the assay on Myzus persicae [4] and with Phaedon cochleariae were 90% and 100%, respectively.

As for `CCS(=O)(=O)c1c(-c2nc3cc(C(F)(F)F)ncc3n2C)nc([C@H]2CC[C@@H](C)CC2)n1C` [Example I-16], in the assay with Myzus persicae [3], the pest or weed control at 0.8 ppm was found to be 90% and the pest or weed control at 4 ppm was 90%. For the same molecule, the pest or weed control at 100 g/ha in the assay with Myzus persicae [4] is 90%. For the same molecule, the efficacy in % in the assay with Tetranychus urticae came to 90%.

As for `CCS(=O)(=O)c1c(-c2nc3cc(C(F)(F)F)nnc3n2C)nc(C2CC2)n1C` [Example I-17], in the assay on Myzus persicae [3], the pest or weed control at 0.8 ppm was determined as 100% and the pest or weed control at 4 ppm was found to be 100%. The pest or weed control at 100 g/ha in the assay on Myzus persicae [4] was determined as 90%. In addition, the pest or weed control at 100 g/ha in the assay on Phaedon cochleariae was 100%.

Source of the values: patent US11058115B2, “Heterocycle derivatives as pesticides” (Bayer Aktiengesellschaft, priority 2017, dated 2021).
